From patent US11376242B2, “Methods and compositions for treating obesity and/or diabetes and for identifying candidate treatment agents” (The J. David Gladstone Institutes, a testamentary trust …, priority 2016, dated 2022) come the findings set out here.

In experiment [1] the test system is ClpP substrate protein levels in mouse MEF cells. As to the kind of experiment: Western blot analysis of ClpP substrates in MEF cells treated with ClpP inhibitors. The class given is cell-based. The conditions noted are these: 10 μM in OPTI-MEM twice a day for 2 days (48 hr); wild type mouse MEF cells; western blot (FIGS. 24 and 25). The method, then:
(§1) Western blot. Tissues or cells were lysated in low-detergent buffer (50 mM Tris/HCl, pH 8.0, 150 mM NaCl, 0.1% SDS, 0.5% Nonidet P-40, 0.5% sodium deoxycholate) with a mixture of protease inhibitors. Phosphatase inhibitors were also included in the lysate buffer. The lysates were centrifuged at 13,000 rpm for 10 min to remove the pellets. SDS-PAGE was performed with a NuPAGE bis-tris system from Invitrogen, following the vendor's protocol. A standard western blot protocol was used with IRDye-labeled secondary antibodies (Li-cor). A Li-cor image system was used to scan the western blot images.
(§2) Wild type mouse MEF cells were seeded at 200,000 cells per well at 6 well plates the day before treatment. Cells were treated with the small molecule ClpP inhibitors A2-32-01, AV167, and AV179 (described previously herein) at 10 μM in OPTI-MEM twice a day for 2 days (48 hr). For each treatment, the old medium will be removed and fresh medium added to the wells. After 48 hr treatment, the cells were harvested for western blot analysis or qPCR assay of ClpP substrates.
In general terms: Immunoblotting shows a protein as a band on a membrane.

The subject of experiment [2] is mRNA level of these genes in mouse MEF cells. As to the kind of experiment: qPCR assay of ClpP substrates in MEF cells treated with ClpP inhibitor. In kind it is cell-based. The conditions noted are these: 10 μM twice a day for 2 days (48 hr), qPCR (FIG. 26). The method, then:
as §2

Experiment [3] relates to high fat diet (HFD)-induced obesity and diabetes mouse models. Kind of experiment: In vivo treatment in high fat diet (HFD)-induced obesity and diabetes mouse model. The text has this:
Animals. All mice were maintained on a 12-h light/dark cycle in a pathogen-free animal facility. Mice were separately housed by their genotypes for all metabolic studies. For high-fat diet (HFD)-induced obesity studies, animals were fed a HFD (21% by weight, 42% kcal from fat, 0.2% total cholesterol; TD.01064, Harlan-Teklad) for specified periods. Anesthesia was induced with isoflurane (survival procedures) or with avertin (terminal procedures). All procedures were approved by the UCSF Animal Research Committee and followed NIH guidelines. Animal sample sizes for different assays were chosen based on previous literature. Animals were grouped according to genotype; no randomization was used. For all behavior tests, all animal IDs were blinded to tester. Testers were not blinded for other assays.
(§3) Measurement of blood glucose and plasma insulin. Blood glucose was measured with a glucometer and glucose test strips (Free Style Lite). Plasma insulin was quantified with an insulin Elisa kit (Crystal Chem).
(§4) Glucose, insulin, and pyruvate tolerance tests. Glucose, insulin, and pyruvate tolerance tests were performed by intraperitoneal injection of glucose (2 g/kg), insulin (0.5 units/kg) or pyruvate (2 g/kg) after an overnight fast for glucose and pyruvate or a 4-h fast for insulin. Blood glucose levels were measured before injection and at different time points after injection. To assess glucose-stimulated insulin release, mice fasted overnight (for 16 h) and were then injected intraperitoneally with glucose (2 g/kg). Blood samples were collected from tail veins before injection and at different time points after injection.
(§5) Histological analysis. Tissues (liver, visceral adipose, gastrocnemius muscle, interscapular brown adipose, and pancreas) were fixed in 4% paraformaldehyde (pH 7.4) overnight, embedded in paraffin, and serially sectioned at 7-8 μm. Standard haematoxylin and eosin staining was performed.
7-9 month old WT female (20 mice), were fed with high fat diet for 3 weeks. Body weight change and blood glucose/plasma insulin levels in response to HFD were measured. At the beginning of the 4th week, for treatment group, A2-32-01 was injected peritoneally twice daily at 300 mg/kg for 8 days. For the control group, corn oil (vehicle) was injected. The mice were maintained on HFD. The body weight change was followed every day. At the 8th day of A2-32-01 injection, blood glucose levels were measured, and a glucose tolerance test was applied to measure insulin sensitivity.
(§6) The in-vivo analysis described in Examples 9 and 10 was continued in accordance with the experimental protocol shown in FIG. 30.

In experiment [4] the target is T1, ClpP (Mus musculus, UniProt O88696).
T1 construct: ClpP activity was lower in liver mitochondrion lysates from A2-32-01-treated mice compared to those from vehicle-treated mice; from tissue; host or cells: liver mitochondria of HFD-fed wild-type mice dosed in vivo with A2-32-01
As to the kind of experiment: ClpP activity in liver mitochondrion lysates from treated HFD-fed mice. The class given is in vivo. The conditions noted are these: HFD-fed WT mice; vs vehicle-treated (FIG. 32 left panel). The method, then: (§7) The in-vivo analysis of Example 9 is continued, with collection of the blood and multiple organs (liver/muscle/brain) at day 9 of A2-32-01 injection. Mitochondria are isolated from mouse liver and ClpP activity is tested using peptide substrates, e.g., as described herein. Western blot analysis is performed to detect ClpP substrate levels.
as §6

Experiment [5] relates to tentative ClpP effectors (Trap1, ClpX, LRPPRC, LonP, and OAT). As to the kind of experiment: Western blot of tentative ClpP effectors in liver mitochondrion lysates from treated HFD-fed mice. The class given is in vivo, mouse. The conditions noted are these: HFD-fed WT mice, vs vehicle-treated (FIG. 32 right panel). The procedure:
as §1, §7, §6

Experiment [6] relates to db/db mice (a model of obesity, diabetes, and dyslipidemia). As to the kind of experiment: In vivo treatment of db/db mice. More on the design: species or system mouse. The procedure: as §3, §4, §5
The target in experiment [7] is T1, ClpP. Kind of experiment: ClpP activity in liver mitochondria lysates from treated db/db mice. The conditions noted are these: vs vehicle (FIG. 35 panel E). The class given is in vivo.
The mark [8] stands for this setting: WT mice on HFD, H&E and oil red staining, vs vehicle (FIG. 33).
Setting [9] is: H&E and oil red staining, vs vehicle (FIG. 36).

T1 sequence (O88696 53-272): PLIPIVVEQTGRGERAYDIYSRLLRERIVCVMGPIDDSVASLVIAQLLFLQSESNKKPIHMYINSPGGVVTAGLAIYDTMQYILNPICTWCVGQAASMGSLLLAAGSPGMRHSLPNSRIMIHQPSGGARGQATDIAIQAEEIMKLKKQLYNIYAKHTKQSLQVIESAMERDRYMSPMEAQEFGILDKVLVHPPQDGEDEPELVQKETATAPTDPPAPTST

Turning to `C=CCCCCCCC[C@H]1C(=O)O[C@@H]1CCc1cccnc1` (racemic) [A2-32-01, (3RS,4RS)-3-(non-8-en-1-yl)-4-(2-(pyridin-3-yl)ethyl)oxetan-2-one], the “ClpP substrate protein levels” value in experiment [1] is given as “increased”. For the same molecule, the “mRNA level of ClpP substrate genes” value in experiment [2] is “remained unchanged”. Moreover, the body weight entry is reported as “significant decrease” in experiment [3] (300 mg/kg peritoneally twice daily, day 2 through day 7, HFD-fed WT female mice, vs vehicle control (FIG. 28)); “significantly decreased” in experiment [3] (Example 11, mice on HFD, vs vehicle-treated (FIG. 31 left panel)); “significantly decreased” in experiment [6] (at the end of the treatment, vs vehicle (FIG. 34 panel B)). Further, in experiment [3] (300 mg/kg peritoneally twice daily, day 8, HFD-fed WT mice, vs vehicle control (FIG. 29)), the “insulin sensitivity (glucose tolerance test)” value is listed as “significant improvement”. The “insulin sensitivity (glucose tolerance tests)” value was “increased” in experiment [3] (Example 11, HFD-fed WT mice, vs vehicle (FIG. 31 right panel)) and “increased” in experiment [6] (vs vehicle (FIG. 35 panel C)). The “lipid accumulation in liver cells” value in experiment [3] (setting [8]) and in experiment [6] (setting [9]) was “lowered” throughout. For the same molecule, the “morphology of liver cells” value in experiment [3] (setting [8]) and in experiment [6] (setting [9]) was “restored normal morphology” throughout. For the same molecule, the “ClpP activity in liver mitochondrion lysates” value in experiment [4] was “lower”. The “levels of tentative ClpP effectors (Trap1, ClpX, LRPPRC, LonP, and OAT) in liver mitochondrion lysates” value in experiment [5] is reported as “higher”. In experiment [6] (vs vehicle (FIG. 35 panel D)), the “fasting blood glucose levels” value is recorded as “significantly lower”. The “ClpP activity in liver mitochondria lysates” value in experiment [7] is given as “lower”.
